Where two headings read alike, the source gives them in different places.
Tests used:
[1] = system: T1, MC4-R; format: cell-based; conditions: HEK-293 cells expressing MC4-R
T1 construct: expressed in transfected cells; host or cells: HEK-293
Excerpt: Assay for Antagonists of AgRP in HEK-293/MC4-R Cells stimulated with Forskolin. […] AgRP causes a decrease in the basal adenylyl cyclase activity only to the extent of 40-50%. Even though the AgRP-induced decrease in cAMP levels is substantial, conventional assay methods, such as those described above, have limited sensitivity, precluding detecting small changes that are reversed by certain antagonists to AgRP. This limitation was circumvented by the use of a non-specific activator, forskolin, which directly activates adenylyl cyclase activity and raises cyclic AMP levels. Forskolin, a cell permeable diterpenoid initially isolated from Coleus forskohlii, has the ability to stimulate adenylyl cyclase activity and increase intracellular cAMP, thus activating cAMP-dependent protein kinase and other cAMP receptor proteins. See, e.g., Seamon, K. B., Daly, J. W. Forskolin: a unique diterpene activator of cyclic AMP-generating system. J. Cyclic Nucleotide Res. 7(4):201-24, 1981; Fradkin, J. E., Cook, G. H., Kilhoffer, M. C., Wolff, J. Forskolin stimulation of thyroid adenylate cyclase and cyclic 3′,5′-adenosine monophosphate accumulation. Endocrinology 111 (3):849-56, 1982; Barber, R., Goka, T. J. Adenylate cyclase activity as a function of forskolin concentration. J. Cyclic Nucleotide Protein Phosphor. Res. 10(1):23-9, 1985; and Laurenza, A., Sutkowski, E. M., Seamon, K. B. Forskolin: a specific stimulator of adenylyl cyclase or a diterpene with multiple sites of action? Trends Pharmacol. Sci. 10(11):442-7, 1989. […] The EC50 value was about 5 μM. AgRP inhibited the forskolin-induced response by 65% at a concentration of 10 nM. The difference in forskolin stimulated response and the inhibition due to AgRP in the cAMP levels was exploited to screen compounds for their ability to antagonize AgRP inhibition and […] levels of cAMP accumulation.
Experimental details for assays included incubating cells with the test compound in the presence of the inverse agonist AgRP with the extent of reversal of the AgRP effect measured by following the increase in the levels of intracellular cAMP. HEK-293 cells expressing MCR-4 were suspended in 10 mM HEPES/Earle's Balanced Salt Solution at pH 7.5 with the phosphodiesterase inhibitor IBMX, and pre-incubated for 30 minutes with the compounds (0.5-5000 nM). The cells were then treated with AgRP (10 nM) and incubated further for 30 minutes. The cells were then treated with forskolin (10 μM) and incubated for an additional 60 minutes. Cells were lysed and cAMP was measured by EIA kit (Amersham).

[2] = system: T2, MC1-R; test: cAMP functional assay, B-16 mouse melanoma cells expressing MC1-R; format: cell-based; conditions: cAMP assay at 1 μM
T2 construct: from B-16 mouse melanoma cells (containing MC1-R); endogenous in cells; host or cells: B-16 mouse melanoma cells

[3] = biological target: T3, MC1-R; test: Competitive inhibition assay using [I125]-NDP-α-MSH, MC1-R membranes; format: binding, mouse
T3 construct: other: 1 μM compound

[4] = system: T4, hMC4-R; format: binding, human; conditions: for Inhibition at 1 μM (AgRP) MC4-R: 1 μM compound
T4 construct: expressed in transfected cells; host or cells: HEK-293
Summary of the method: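 Membranes from hMC4-R-expressing cells incubated 1 h at 37 °C with 0.2 nM [I^125]-AgRP (83-132) and increasing compound in 25 mM HEPES pH 7.5, 100 mM NaCl, 2 mM CaCl2, 2 mM MgCl2, 0.3 mM 1,10-phenanthroline, 0.5% BSA. Filtration, gamma counting; specific binding kept ≤10% of added counts.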

[5] = system: T5, hMC5-R; test: cAMP functional assay, HEK-293 cells expressing hMC5-R; format: cell-based, human; conditions: cAMP assay at 1 μM
T5 construct: expressed in transfected cells; host or cells: HEK-293

[6] = biological target: T4, hMC4-R; test: Competitive inhibition assay using [I125]-NDP-α-MSH, hMC4-R membranes; format: binding, human; conditions: for Inhibition at 1 μM (NDP-α-MSH) MC4-R: 1 μM compound
[7] = biological target: T6, hMC3-R; test: Competitive inhibition assay using [I125]-NDP-α-MSH, hMC3-R membranes; format: binding, human; conditions: for Ki: read-out: Ki (nM) (NDP-α-MSH) MC3-R; for Inhibition at 1 μM (NDP-α-MSH) MC3-R: 1 μM compound
T6 construct: expressed in transfected cells; host or cells: HEK-293
Summary of the method: (§1)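 Membranes from HEK-293 cells expressing hMC3-R, hMC4-R or hMC5-R, or from mouse B-16 melanoma cells (MC1-R), with 0.2–0.4 nM [125I]-NDP-α-MSH in 50 mM HEPES pH 7.2 with Mg2+, Ca2+, K+. Test compound typically 1 μM; 90 min, room temperature; filtration, gamma counting. Percent inhibition vs specific binding (1 μM α-MSH), triplicate mean, negatives as 0%.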

[8] = system: T6, hMC3-R; test: cAMP functional assay, HEK-293 cells expressing hMC3-R; format: cell-based, human; conditions: cAMP assay at 1 μM
Description: General method for EC50 determination in functional activity assay. Functional evaluation of compounds at melanocortin receptors was performed by measuring the accumulation of intracellular cAMP in HEK-293 cells expressing hMC3-R, hMC4-R or hMC5-R, and in B-16 mouse melanoma cells expressing MC1-R. Cells suspended in Earle's Balanced Salt Solution containing 10 mM HEPES (pH 7.5), 5 mM MgCl2, 1 mM glutamine, 0.1% albumin and 0.6 mM 3-isobutyl-1-methyl-xanthine, a phosphodiesterase inhibitor, were plated in 96 well plates at a density of 0.5×10^5 cells per well. Cells were incubated with the test compounds in the presence or absence of α-MSH for 1 hour at 37° C. cAMP levels in the cell lysates were measured using an EIA kit (Amersham). Data analysis and EC50 values were determined using nonlinear regression analysis with Prism Graph-Pad software.
Functional status. The agonist/antagonist status with respect to MC1-R, MC-3R, MC4-R and MC5-R of certain compounds of the invention was determined.

[9] = biological target: T5, hMC5-R; test: Competitive inhibition assay using [I125]-NDP-α-MSH, hMC5-R membranes; format: binding, human; conditions: for Ki: read-out: Ki (nM) (NDP-α-MSH) MC5-R; for Inhibition at 1 μM (NDP-α-MSH) MC5-R: 1 μM compound
Summary of the method: as §1

[10] = system: T4, hMC4-R; test: cAMP functional assay in HEK-293 cells expressing MC4-R (agonist, neutral antagonist/Schild); format: cell-based, human; conditions: for functional status (pAg, Ag, Antag, Inactive): MC4-R, Table 1; for intrinsic activity at MC4-R: NDP-α-MSH maximal stimulation = 1.0; for functional status at MC4-R: mostly at 1 μM
Summary of the method: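 Cells in EBSS/HEPES pH 7.5 with 0.3 mM IBMX, exposed to compound (0.05-5000 nM, 1% DMSO) for 1 h at 37 °C; cAMP by EIA, EC50 by nonlinear regression. Antagonism: 30 min compound pre-incubation, then 1 nM NDP-α-MSH for 1 h; Schild analysis over 0.005-5000 nM agonist gives pA2.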

[11] = system: T1, MC4-R; test: Assay for inverse agonist, HEK-293 cells expressing MC4-R; format: cell-based; conditions: FIG. 3
Description: Assay for inverse agonist. […] The experimental protocol was essentially as described above. The cells were exposed to the test compounds over a concentration range of 0.05 nM to 5000 nM for 1 hour at 37° C. AgRP (83-132) was used as the reference inverse agonist. Data analysis and EC50 values were determined by using nonlinear regression analysis with the Prism Graph-Pad software.

[12] = biological target: MC1-R; test: Competitive inhibition assay using [I125]-NDP-α-MSH, MC1-R membranes; format: binding, mouse; conditions: for Inhibition at 1 μM (NDP-α-MSH) MC1-R: 1 μM compound
[13] = MC4-R membranes, Table 1, read-out: Ki (nM) I125-AgRP
[14] = MC4-R membranes, Table 1, read-out: Ki (nM) I125-NPD-α-MSH
[15] = read-out: Ki (nM) (NDP-α-MSH) MC4-R

Row | Compound | Inhibition at 1 μM (AgRP) MC4-R [4] [%] | Ki [4, 13] [nM] | Ki ([4]; read-out: Ki (nM) (AgRP) MC4-R) | Ki [6, 14] [nM] | Ki [6, 15] [nM] | Ki [7] [nM] | Ki [9] [nM] | functional status (pAg, Ag, Antag, Inactive) [10] | intrinsic activity at MC4-R [10] | functional status at MC4-R ([10]; cAMP assay) | Ki [12] [nM] | Inhibition at 1 μM (NDP-α-MSH) MC1-R [12] [%] | Inhibition at 1 μM (NDP-α-MSH) MC4-R [6] [%] | Inhibition at 1 μM (NDP-α-MSH) MC3-R [7] [%] | Inhibition at 1 μM (NDP-α-MSH) MC5-R [9] [%] | further results
1 | Forskolin [reference compound] |  |  |  |  |  |  |  |  |  |  |  |  |  |  |  | total response relative to NDP-α-MSH [1]: three-fold higher; EC50 ([1]; read-out: EC50 value (cAMP stimulation)): ~5000 nM
2 | CC(=O)N[C@H](Cc1ccc2ccccc2c1)C(=O)N1C[C@@H](CC(C)C)N(CCc2ccc3ccccc3c2)C[C@@H]1CCCNC(=N)N [Example 13, N-{2-[2(S)-(3-Guanidino-propyl)-5(R)-isobutyl-4(2-naphthalen-2-yl-ethyl)-piperazin-1-yl]-1(R)-naphthalen-2-ylmethyl-2-oxo-ethyl}-acetamide] | 100 | 3.7 | 3.7 | 6 | 6 | 474 | 378 | Antag (“Antag” means antagonist) | no intrinsic activity | antagonist |  |  |  |  |  | functional status at MC1-R [2]: no intrinsic activity (intrinsic activity below 0.1 (10%) is classified as inactive or having no intrinsic activity); Ki [3]: 4620 nM; Inhibition at 1 μM (NDP-α-MSH) MC1-R ([3]; 1 μM compound): 0%; functional status at MC5-R [5]: partial agonist (intrinsic activity between 0.1 (10%) and 0.7 (70%) is classified as a partial agonist); functional status at MC3-R [8]: no intrinsic activity (intrinsic activity below 0.1 (10%) is classified as inactive or having no intrinsic activity); pA2 value at MC4-R ([10]; Schild plot vs NDP-α-MSH): 7.3; inverse agonism (basal cAMP) [11]: inverse agonism
3 | NCCCC[C@H]1C(=O)N(CCc2ccc3ccccc3c2)CCN1C(=O)[C@@H](Cc1ccc(Cl)cc1Cl)NC(=O)/C=C/c1ccccc1 [Example 21, (E)-N—[(R)-2-[(S)-2-(4-Amino-butyl)-4-(2-naphthalen-2-yl-ethyl)-3-oxo-piperazin-1-yl]-1-(2,4-dichloro-benzyl)-2-oxo-ethyl]-3-phenyl-acrylamide] | 100 | 5 | 5 | 6 | 6 | 648 | 398 | pAg (“pAg” means partial agonist) | 0.2 |  | 502 | 30 | 96 | 46 | 60 | attenuation of binding of α-MSH and AgRP to MC4-R ([6]; both ligands (NDP-α-MSH and AgRP), summary): attenuate the binding of both α-MSH and AgRP to MC4-R; EC50 ([10]; cAMP assay, read-out: EC50 (nM) at MC4-R): 112 nM
4 | N=C(N)NCCC[C@H]1CN(C(=O)Cc2ccc3ccccc3c2)[C@H](Cc2ccccc2)CN1C[C@H](N)Cc1ccc2ccccc2c1 [Example 30, N-{3-[1-[2(R)-Amino-3-naphthalen-2-yl-propyl]-5(R)-benzyl-4-(2-naphthalen-2-yl-acetyl)-piperazin-2(S)-yl]-propyl}-guanidine] |  | 90 | 90 | 55 | 61 | 387 | 178 | Inactive |  | inactive | 2770 | 32 | 92 | 49 | 87 | 
